The source of these data is ChEMBL document CHEMBL1145419, “Structural insight into the pharmacophore pocket of human glutamate carboxypeptidase II” (J Med Chem, 2007).

Chain of Glutamate carboxypeptidase 2 (Q04609 whole entry): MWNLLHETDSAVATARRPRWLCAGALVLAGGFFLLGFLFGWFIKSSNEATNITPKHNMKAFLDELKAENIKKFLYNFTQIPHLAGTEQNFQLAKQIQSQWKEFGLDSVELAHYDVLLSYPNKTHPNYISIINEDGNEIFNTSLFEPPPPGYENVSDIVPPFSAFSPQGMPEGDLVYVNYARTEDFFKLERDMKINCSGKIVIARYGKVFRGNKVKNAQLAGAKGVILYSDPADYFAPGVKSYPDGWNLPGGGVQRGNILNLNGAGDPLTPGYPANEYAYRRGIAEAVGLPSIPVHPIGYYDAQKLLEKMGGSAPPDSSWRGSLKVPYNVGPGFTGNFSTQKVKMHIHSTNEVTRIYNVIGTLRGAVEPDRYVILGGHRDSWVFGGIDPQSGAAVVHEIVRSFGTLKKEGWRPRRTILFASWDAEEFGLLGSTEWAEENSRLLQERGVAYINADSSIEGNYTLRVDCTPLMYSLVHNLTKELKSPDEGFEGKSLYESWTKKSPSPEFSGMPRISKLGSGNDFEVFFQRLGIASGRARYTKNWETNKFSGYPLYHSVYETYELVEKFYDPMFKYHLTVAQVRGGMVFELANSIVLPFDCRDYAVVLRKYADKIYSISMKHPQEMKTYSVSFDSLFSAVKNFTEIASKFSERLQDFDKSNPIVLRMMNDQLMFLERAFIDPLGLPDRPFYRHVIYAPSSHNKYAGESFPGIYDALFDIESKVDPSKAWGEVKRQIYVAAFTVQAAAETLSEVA

This assay addresses Glutamate carboxypeptidase 2 (Homo sapiens, UniProt Q04609).
Description: Inhibition of human recombinant glutamate carboxypeptidase 2 by radioenzymatic assay
Usually IC50 stands for the concentration that inhibits the measured activity by half. `N[C@@H](Cn1ccc(=O)[nH]c1=O)C(=O)O` [(S)-WILLARDIINE] registered an IC50 of 67 µM. The figure for `N[C@@H](COP(=O)(O)O)C(=O)O` [DEXFOSFOSERINE] is 523 µM. Next, `N[C@@H](CCC(=O)O)C(=O)O` [GLUTAMIC ACID]: 428 µM; `N[C@@H](Cn1oc(=O)[nH]c1=O)C(=O)O` [QUISQUALATE]: 9.5 µM.
